Data as given in patent US20250066826A1, “ARTIFICIAL SYNTHESIS METHOD FOR MALONYL-COENZYME A (COA) AND USE THEREOF” (SHANGHAI JIAO TONG UNIVERSITY, priority 2023, published 2025).
Where two headings read alike, the source gives them in different places.

Legend:
artificial NCM pathway = experiment: Effect of inhibitors of natural synthesis pathways on the NCM in-vitro reaction system; type: biochemical
Procedure: It can be seen that the BauA has the best effect (FIG. 4A).
Natural PDH-ACC pathways are strictly regulated by many factors, such as high levels of intracellular ATP severely reducing the activity of PDH. When ADP/ATP=1, the activity of PDH is only 10% of that when ADP/ATP=20 (Hansford R G et al., 1976). Acetyl-CoA is also an inhibitor of PDH. When acetyl-CoA reaches 2 mM, the activity of PDH decreases by 70%. Long-chain fatty acyl-CoA, such as palmitoyl-CoA, is an inhibitor of ACC. […] palmitoyl-CoA can cause an 80% decrease in ACC activity. In the above NCM in-vitro reaction system, ATP and ADP (ATP+ADP=3.75 mM, ADP/ATP was +00, 10, 1, and 0.1, respectively) (FIG. 6A), acetyl-CoA (0, 0.5, 1, and 2 mM) (FIG. 6B), and palmitoyl-CoA ([…]) (FIG. 6C) were added, respectively.

PDH = conditions: cited from earlier work
[1] = system: E. coli MG1655 (DE3), pCDF-bauA-mcrC (strain L); type: cell-based; conditions: for biomass (OD550): NCM pathway overexpressed strain, MOPS medium with 200 mM succinic acid, 10 mM triacetic acid lactone, 300 mM NaCl or 480 mM sucrose; for increase of biomass of NCM strain compared to the ACC overexpressed strain / increase of biomass of NCM strain compared to the reference strain: same stressor concentrations as OD550 values
Procedure: (§1) Seed culture: Monoclones of the MG1655 (DE3), pCDF-bauA-mcrC (strain L), monoclones of the MG1655 (DE3), pCDF-duet (strain M) and monoclones of the MG1655 (DE3), pCDF-ACC (strain N) were selected respectively to be inoculated into a 15 mL test tube containing 5 mL of an MOPS medium, the medium containing spectinomycin (a final concentration of 50 μg/mL). Culture was carried out at 220 r and 37° C. until the OD550 is around 1.5 to 1.8 to be used as a seed solution.
(§2) Medium used for tolerance testing: IPTG (a final concentration of 0.1 mM) and spectinomycin (a final concentration of 50 μg/mL) were added into an MOPS medium (containing […] glucose); then, inhibitors were added, and the selected inhibitors and final concentrations thereof were formic acid (100 mM), acetic acid (50 mM), caproic acid (10 mM), lactic acid (500 mM), succinic acid (200 mM), glucose (100 μg/L), sucrose (480 mM), octanoic acid (10 mM), citric acid (200 mM), vanillic acid (3 μg/L), and triacetic acid lactone (TAL, 1.25 μg/L).
(§3) The seed solution was inoculated at a ratio of initial OD550=0.1 into a medium for tolerance test. After inoculation was completed, shaking for even mixing was carried out. 200 μL of the same was pipetted to a 96-well plate. By using a continuous kinetic assay method, OD550 was determined every 10 minutes with a microplate reader (Biotek), to determine the growth curve of the strain. The specific growth rate […] can be obtained by calculation of the exponential growth phase OD550T, cultivation time T, and initial OD550O.

[2] = system: E. coli MG1655 (DE3), pCDF-ACC (strain N); type: cell-based; conditions: ACC overexpressed strain; MOPS medium with 200 mM succinic acid, 10 mM triacetic acid lactone, 300 mM NaCl or 480 mM sucrose
Procedure: as §1, §2, §3

[3] = system: E. coli MG1655 (DE3), pCDF-duet (strain M); experiment: Tolerance test, growth (OD550) of reference strain; type: cell-based; conditions: MOPS medium with 200 mM succinic acid, 10 mM triacetic acid lactone, 300 mM NaCl or 480 mM sucrose
Procedure: as §1, §2, §3

**Q.** With `CCCCCCCCCCCCCCCC(=O)SCCNC(=O)CCNC(=O)[C@H](O)C(C)(C)COP(=O)(O)OP(=O)(O)OC[C@H]1O[C@@H](n2cnc3c(N)ncnc32)[C@H](O)[C@@H]1OP(=O)(O)O` [palmitoyl-CoA] as the compound, how does the “inhibitory effect on the artificial NCM pathway” value (artificial NCM pathway; palmitoyl-CoA 0, 0.24, 0.48, 0.96, 2.4 and 24 M) read?
**A.** Its value is “no inhibitory effect”.

**Q.** For `CC(=O)SCCNC(=O)CCNC(=O)[C@H](O)C(C)(C)COP(=O)(O)OP(=O)(O)OC[C@H]1O[C@@H](n2cnc3c(N)ncnc32)[C@H](O)[C@@H]1OP(=O)(O)O` [acetyl-CoA], which “decrease in PDH activity” value (PDH; 2 mM acetyl-CoA) is on record?
**A.** The value was 70%.

**Q.** And the “inhibitory effect on the artificial NCM pathway” value (artificial NCM pathway; acetyl-CoA 0, 0.5, 1 and 2 mM)?
**A.** The value was “no inhibitory effect”.

**Q.** For `Cc1cc(O)cc(=O)o1` [triacetic acid lactone], which “biomass (OD550)” value [1] is on record?
**A.** Its value is 0.81.

**Q.** What about the “increase of biomass of NCM strain compared to the ACC overexpressed strain” value [1] of the same compound?
**A.** Its value is 180%.

**Q.** What about the “increase of biomass of NCM strain compared to the reference strain” value (“increase of biomass … to the reference strain” below) [1] of the same compound?
**A.** The value was 30%.

**Q.** And the “biomass (OD550)” value [2]?
**A.** Its value is 0.29.

**Q.** What about the “biomass (OD550)” value [3] of the same compound?
**A.** Its value is 0.62.

**Q.** For `[Cl-].[Na+]` [NaCl], which “biomass (OD550)” value [1] is on record?
**A.** Its value is 0.76.

**Q.** What about the “increase of biomass of NCM strain compared to the ACC overexpressed strain” value [1] of the same compound?
**A.** The value was 214%.

**Q.** What about the “increase of biomass … to the reference strain” value [1] of the same compound?
**A.** The value was 29%.

**Q.** What about the “biomass (OD550)” value [2] of the same compound?
**A.** The value was 0.24.

**Q.** And the “biomass (OD550)” value [3]?
**A.** The value was 0.59.

**Q.** With `O=C(O)CCC(=O)O` [succinic acid] as the compound, how does the “biomass (OD550)” value [1] read?
**A.** Its value is 0.60.

**Q.** And the “increase of biomass … to the reference strain” value [1]?
**A.** Its value is 100%.

**Q.** What about the “biomass (OD550)” value [2] of the same compound?
**A.** The value was 0.20.

**Q.** What about the “biomass (OD550)” value [3] of the same compound?
**A.** The value was 0.30.

**Q.** Which results are given for `Nc1ncnc2c1ncn2[C@@H]1O[C@H](COP(=O)(O)OP(=O)(O)OP(=O)(O)O)[C@@H](O)[C@H]1O` [ATP]?
**A.** decrease in PDH activity (PDH; ADP/ATP equal to 1): 90%; activity of PDH relative to that when ADP/ATP=20 (PDH; ADP/ATP=1): 10%; inhibitory effect on the artificial NCM pathway (artificial NCM pathway; ATP+ADP=3.75 mM, ADP/ATP +00, 10, 1 and 0.1): no inhibitory effect

**Q.** Which results are given for `OC[C@H]1O[C@@](CO)(O[C@H]2O[C@H](CO)[C@@H](O)[C@H](O)[C@H]2O)[C@@H](O)[C@@H]1O` [sucrose]?
**A.** biomass (OD550) [1]: 0.96; increase of biomass of NCM strain compared to the ACC overexpressed strain [1]: 320%; increase of biomass of NCM strain compared to the reference strain [1]: 26%; biomass (OD550) [2]: 0.23; biomass (OD550) [3]: 0.77
